# Values joined by “and” are separate entries in the source; they are usually repeats but may differ in a detail not shown here. Identical values can stand only once.
# Tests used:
# Format in all cases: cell-based, human
# MMP13 = assay: Stem cell chondrogenesis, real time PCR gene expression: MMP13; conditions: for regulation, MMP13 / Mean regulation, MMP13 / ΔCp, MMP13 / 2^-ΔΔCp vs saline, MMP13 / ΔΔCp vs saline, MMP13 / Mean ΔCp, MMP13: Day 7; for regulation, MMP13 / Mean regulation, MMP13: fold regulation vs saline; for regulation, MMP13 / ΔCp, MMP13 / 2^-ΔΔCp vs saline, MMP13 / ΔΔCp vs saline, MMP13: single replicate well; for Mean regulation, MMP13 / Mean ΔCp, MMP13: triplicate wells; for ΔCp, MMP13: human bone marrow MSC, chondrogenic medium + TGF beta 3; for ΔCp, MMP13 / 2^-ΔΔCp vs saline, MMP13 / ΔΔCp vs saline, MMP13 / Mean ΔCp, MMP13: vs Actin; for Cp, MMP13 / ΔΔCp vs saline / 2^-ΔΔCp vs saline / Mean regulation / Mean ΔCp / ΔCp: Day 22; for Cp, MMP13 / ΔΔCp vs saline / 2^-ΔΔCp vs saline / Mean regulation: MMP13; for Mean regulation: vs saline; for Mean ΔCp / ΔCp: MMP13 vs GAPDH
# Method: (§1) • Stem Cells: Bone marrow derived human mesenchymal stem cells: Passage 5 Bone marrow derived human mesenchymal stem cells (HUXMA-01001, Cyagen Biosciences, Sunnyvale Calif.) • Mesenchymal Stem Cell Chondrogenic Differentiation medium (GUXMX-90041, Cyagen Biosciences, Sunnyvale Calif.) • TheraPEAK MSCGM chemically defined Stem cell medium (190632 Lonza) • 1 mM Dexamethasone acetate and mifepristone in absolute ethanol (Sigma) • Saline or 0.9% Sodium chloride for injection ZR Flush (Excelsior Medical, Neptune N.J.) • Sterile filtered 0.6 mM sodium caprylate in saline (sigma) • Sterile filtered 3 mM NAT in saline (sigma); To prepare, heat at 60° C. for 30 minutes then sonicate for 5 minutes. • Sterile filtered 10 mM DADKP in saline • 0.2 μM syringe filters • Hepes buffered saline, Trypsin/EDTA, Trypsin neutralizing solution (Lonza reagent pack) • 182 cm2 tissue culture flasks • pipettes and sterile tips • Tissue culture hood, humidified CO2 incubator, water or bead bath • 24 well tissue culture plates • Qiagen RNeasy plus spin columns (Qiagen 74134) • Qiagen RT2 qPCR primer pairs for Collagen 2A1, MMP13, TIMP1, Aggrecan, GAPDH, and Actin B • Roche Sybr green I master mix and Invitrogen Superscript VILO master mix. • Roche 480 lightcycler
# (§2) The following stock drug treatment solutions were prepared in saline for injection and warmed to 37° C. in bath: • 4 μM dexamethasone • 4 μM mifepristone • 3 mM NAT • 0.6 mM caprylate • 80 μM DADKP • Mix of 3 mM NAT, 0.6 mM caprylate, 80 μM DADKP (“Ampion” mix)
# (§3) Cyagen Chondrogenic Differentiation medium was prepared by manufacturer protocols but excluding dexamethasone and TGF beta 3 supplements, and warmed to 37° C. in bath.
# (§4) The treatment protocol included expanding 5 HUXMA stem cells in 182 cm^2 flasks containing 40 mls TheraPEAK™ MSCGM to 80-90% confluence. Cells were trypsinized from the flasks and a 1.0×10^7 cell suspension of HUXMA stem cells was warmed in Cyagen Chondrogenic Differentiation medium. 20 μl of warmed cell suspension was spotted in the middle of each well of a 24-well tissue culture plate (200,000 cells per spot), and incubated at 37° C. and 5% CO2 for one hour.
# (§5) The plates were removed from the incubator and an additional 720 μl chondrogenic medium was added to each well. 250 μl saline, or drug solutions were added to the appropriate wells in triplicate (bringing the final drug dilution to one-quarter of the stock drug treatment solution concentrations). 10 μl of TGF beta 3 solution (supplied by Cyagen) was added to each well, and the plates were returned to the incubator.
# (§6) RNA isolation and analysis was conducted for all plates as follows at days 7, 14, and 22 post treatment (with the described medium exchanges). […] Qiagen RNeasy plus lysis buffer (with 2mercaptoethanol) was added to each well and gently shaken for 10 minutes. The lysed cell suspensions from each well were transferred to Qiashredder columns and spun at 14,000 rpm for 2 minutes. RNA isolation proceeded by RNeasy™ plus manufacturer's protocol. RNA was eluted from the Qiagen columns using 25 μl RNase free water.
# (§7) cDNA synthesis and real time PCR was conducted as follows. First strand synthesis of cDNA from all samples was performed in 20 μl total volume using 10 μl isolated RNA. All cDNA reactions were then diluted with 30 μl nuclease free water. Real time PCR was then performed using 5 μl diluted cDNA, Roche Syber green master mix, and Qiagen RT^2 gPCR™ primer pairs in 20 μl total reaction volume. Relative gene expression was determined by delta deta Ct method.
# Collagen 2A1 = assay: Stem cell chondrogenesis, real time PCR gene expression: Collagen 2A1; conditions: for Cp Coll / Mean regulation: Collagen 2A1; for Cp Coll / Mean regulation / Mean ΔCp / ΔCp: Day 22; for Mean regulation: vs saline; for Mean ΔCp / ΔCp: Collagen 2A1 vs GAPDH; for regulation, Collagen 2A1 / Mean regulation, Collagen 2A1: fold regulation vs saline; for regulation, Collagen 2A1 / ΔCp, Collagen 2A1 / 2^-ΔΔCp vs saline, Collagen 2A1 / ΔΔCp vs saline, Collagen 2A1: single replicate well; for Mean regulation, Collagen 2A1 / Mean ΔCp, Collagen 2A1: triplicate wells; for ΔCp, Collagen 2A1: human bone marrow MSC, chondrogenic medium + TGF beta 3; for ΔCp, Collagen 2A1 / 2^-ΔΔCp vs saline, Collagen 2A1 / ΔΔCp vs saline, Collagen 2A1 / Mean ΔCp, Collagen 2A1: vs Actin
# Method: as §1, §2, §3, §4, §5, §6, §7
# SOX9 = assay: Stem cell chondrogenesis, real time PCR gene expression: SOX9; conditions: Day 14; for regulation, SOX9 / Mean regulation, SOX9: fold regulation vs saline; for regulation, SOX9 / ΔCp, SOX9 / 2^-ΔΔCp vs saline, SOX9 / ΔΔCp vs saline, SOX9: single replicate well; for Mean regulation, SOX9 / Mean ΔCp, SOX9: triplicate wells; for ΔCp, SOX9: human bone marrow MSC, chondrogenic medium + TGF beta 3; for ΔCp, SOX9 / 2^-ΔΔCp vs saline, SOX9 / ΔΔCp vs saline, SOX9 / Mean ΔCp, SOX9: vs Actin
# Method: The treatment protocol included expanding 5 HUXMA stem cells in 182 cm^2 flasks containing 40 […] to 80-90% confluence. Cells were trypsinized from the flasks and a 1.0×10^7 cell suspension of HUXMA stem cells was warmed in Cyagen Chondrogenic Differentiation medium. 20 μl of warmed cell suspension was spotted in the middle of each well of a 24-well tissue culture plate (200,000 cells per spot), and incubated at 37° C. and 5% CO2 for one hour. […] Medium exchanges were performed every 3-4 days by aspirating the medium from the wells and replacing with fresh chondrogenic medium, diluted stocks, and TGF beta 3, as described above. […] Medium from the wells was removed and saved for further protein analysis. Qiagen RNeasy plus lysis buffer (with 2mercaptoethanol) was added to each well and gently shaken for 10 minutes. The lysed cell suspensions from each well were transferred to Qiashredder columns and spun at 14,000 rpm for 2 minutes. RNA isolation proceeded by RNeasyTM plus manufacturer's protocol. RNA was eluted from the Qiagen columns using 25 μl RNase free water. cDNA synthesis and real time PCR was conducted as follows. First strand synthesis of cDNA from all samples was performed in 20 μl total volume using 10 μl isolated RNA. All cDNA reactions were then diluted with 30 μl nuclease free water. Real time PCR was then performed using 5 μl diluted cDNA, Roche Syber green master mix, and Qiagen RT^2 gPCRTM primer pairs in 20 μl total reaction volume.
# Aggrecan = assay: Stem cell chondrogenesis, real time PCR gene expression: Aggrecan; conditions: Day 22; for Mean ΔCp / ΔCp: Aggrecan vs Actin; for Cp Agg / Mean regulation: Aggrecan; for Mean regulation: vs saline
# Method: as §1, §2, §3, §4, §5, §6, §7
# TIMP1 = assay: Stem cell chondrogenesis, real time PCR gene expression: TIMP1; conditions: Day 22; for Cp TIMP1 / 2-^ΔΔCp vs saline / Mean regulation / regulation: TIMP1; for Mean regulation / regulation: vs saline; for Mean ΔCp / ΔCp: TIMP1 vs Actin
# Method: as §1, §2, §3, §4, §5, §6, §7
smiles,measurement,setting,value
"CC#C[C@]1(O)CC[C@H]2[C@@H]3CCC4=CC(=O)CCC4=C3[C@@H](c3ccc(N(C)C)cc3)C[C@@]21C [Mifepristone, mifepristone]","regulation, MMP13",MMP13,−1.49 and −1.34
same,"Mean regulation, MMP13",MMP13,−2.47
same,"ΔCp, MMP13",MMP13,5.21 and 6.83 and 5.06
same,"2^-ΔΔCp vs saline, MMP13",MMP13,0.6721 and 0.2186 and 0.7457
same,"ΔΔCp vs saline, MMP13",MMP13,0.573 and 2.193 and 0.423
same,"Mean ΔCp, MMP13",MMP13,5.7
same,"Cp, MMP13",MMP13; Table 12,20.98 and 21.32 and 21.37
same,ΔΔCp vs saline,MMP13; Table 12,0.517 and 0.867 and 0.537
same,2^-ΔΔCp vs saline,MMP13; Table 16,0.699 and 0.5484 and 0.6894
same,"Cp, MMP13",MMP13; Table 16,20.98 and 21.32 and 21.37
same,ΔΔCp vs saline,MMP13; Table 16,0.517 and 0.867 and 0.537
same,Mean regulation,MMP13; Table 12,−1.57
same,Mean regulation,MMP13; Table 16,−1.57
same,Mean ΔCp,MMP13; Table 12,3.633
same,ΔCp,MMP13; Table 12,3.51 and 3.86 and 3.53
same,Mean ΔCp,MMP13; Table 16,3.633
same,ΔCp,MMP13; Table 16,3.51 and 3.86 and 3.53
same,Cp Coll,Collagen 2A1; Table 12,25.99 and 27.6 and 26.84
same,Cp Coll,Collagen 2A1; Table 16,25.99 and 27.6 and 26.84
same,Mean regulation,Collagen 2A1; Table 12,16.82
same,Mean regulation,Collagen 2A1; Table 16,16.82
same,Mean ΔCp,Collagen 2A1; Table 12,9.22
same,ΔCp,Collagen 2A1; Table 12,8.52 and 10.14 and 9
same,Mean ΔCp,Collagen 2A1; Table 16,9.22
same,ΔCp,Collagen 2A1; Table 16,8.52 and 10.14 and 9
same,"regulation, Collagen 2A1",Collagen 2A1; Day 7,−1.12 and −3.11 and −1.23
same,"Mean regulation, Collagen 2A1",Collagen 2A1; Day 7,−1.82
same,"ΔCp, Collagen 2A1",Collagen 2A1; Day 7,6.9 and 8.37 and 7.03
same,"2^-ΔΔCp vs saline, Collagen 2A1",Collagen 2A1; Day 7,0.8909 and 0.3216 and 0.8141
same,"ΔΔCp vs saline, Collagen 2A1",Collagen 2A1; Day 7,0.167 and 1.637 and 0.297
same,"Mean ΔCp, Collagen 2A1",Collagen 2A1; Day 7,7.433
same,"regulation, Collagen 2A1",Collagen 2A1; Day 14,1.21 and 1.07 and 1.57
same,"Mean regulation, Collagen 2A1",Collagen 2A1; Day 14,1.28
same,"ΔCp, Collagen 2A1",Collagen 2A1; Day 14,10.78 and 10.96 and 10.41
same,"2^-ΔΔCp vs saline, Collagen 2A1",Collagen 2A1; Day 14,1.2114 and 1.0693 and 1.5655
same,"ΔΔCp vs saline, Collagen 2A1",Collagen 2A1; Day 14,−0.28 and −0.1 and −0.65
same,"Mean ΔCp, Collagen 2A1",Collagen 2A1; Day 14,10.72
same,"regulation, SOX9",SOX9,1.24 and 1.17 and 1.16
same,"Mean regulation, SOX9",SOX9,1.19
same,"ΔCp, SOX9",SOX9,6.87 and 6.95 and 6.96
same,"2^-ΔΔCp vs saline, SOX9",SOX9,1.2397 and 1.1728 and 1.1647
same,"ΔΔCp vs saline, SOX9",SOX9,−0.31 and −0.23 and −0.22
same,"Mean ΔCp, SOX9",SOX9,6.927
same,Mean ΔCp,Aggrecan; Table 12,9.247
same,ΔCp,Aggrecan; Table 12,10.29 and 8.98 and 8.47
same,Mean ΔCp,Aggrecan; Table 16,9.247
same,ΔCp,Aggrecan; Table 16,10.29 and 8.98 and 8.47
same,Cp Agg,Aggrecan; Table 12,25.97 and 24.4 and 23.94
same,Cp Agg,Aggrecan; Table 16,25.97 and 24.4 and 23.94
same,Mean regulation,Aggrecan; Table 12,1.55
same,Mean regulation,Aggrecan; Table 16,1.55
same,Cp TIMP1,TIMP1; Table 12,19.69 and 19.8 and 19.76
same,2-^ΔΔCp vs saline,TIMP1; Table 16,0.6958 and 0.8448 and 0.6537
same,Cp TIMP1,TIMP1; Table 16,19.76 and 19.69 and 19.8
same,Mean regulation,TIMP1; Table 12,−1.38
same,Mean ΔCp,TIMP1; Table 12,4.227
same,ΔCp,TIMP1; Table 12,4.01 and 4.38 and 4.29
same,Mean ΔCp,TIMP1; Table 16,4.227
same,ΔCp,TIMP1; Table 16,4.29 and 4.01 and 4.38
"CC(=O)N[C@@H](Cc1c[nH]c2ccccc12)C(=O)O [NAT, N-acetyl-tryptophan]","regulation, MMP13",MMP13,−1.43 and −1.81 and −2.45
same,"Mean regulation, MMP13",MMP13,−1.89
same,"ΔCp, MMP13",MMP13,5.15 and 5.49 and 5.93
same,"2^-ΔΔCp vs saline, MMP13",MMP13,0.7006 and 0.5535 and 0.408
same,"ΔΔCp vs saline, MMP13",MMP13,0.513 and 0.853 and 1.293
same,"Mean ΔCp, MMP13",MMP13,5.523
same,"Cp, MMP13",MMP13; Table 12,22.68 and 21.71 and 21.65
same,2^-ΔΔCp vs saline,MMP13; Table 16,0.8487 and 1.0305 and 1.0093
same,"Cp, MMP13",MMP13; Table 16,22.68 and 21.71 and 21.65
same,Mean regulation,MMP13; Table 12,0.29
same,Mean regulation,MMP13; Table 16,0.29
same,Mean ΔCp,MMP13; Table 12,3.053
same,ΔCp,MMP13; Table 12,3.23 and 2.95 and 2.98
same,Mean ΔCp,MMP13; Table 16,3.053
same,ΔCp,MMP13; Table 16,3.23 and 2.95 and 2.98
same,Cp Coll,Collagen 2A1; Table 12,24.2 and 23.63 and 24.67
same,Cp Coll,Collagen 2A1; Table 16,24.2 and 23.63 and 24.67
same,Mean regulation,Collagen 2A1; Table 12,262.94
same,Mean regulation,Collagen 2A1; Table 16,262.94
same,Mean ΔCp,Collagen 2A1; Table 12,5.207
same,ΔCp,Collagen 2A1; Table 12,4.75 and 4.87 and 6
same,Mean ΔCp,Collagen 2A1; Table 16,5.207
same,ΔCp,Collagen 2A1; Table 16,4.75 and 4.87 and 6
same,"regulation, Collagen 2A1",Collagen 2A1; Day 7,−1.40 and 1.01 and −1.43
same,"Mean regulation, Collagen 2A1",Collagen 2A1; Day 7,−0.61
same,"ΔCp, Collagen 2A1",Collagen 2A1; Day 7,7.22 and 6.72 and 7.25
same,"2^-ΔΔCp vs saline, Collagen 2A1",Collagen 2A1; Day 7,0.7137 and 1.0093 and 0.699
same,"ΔΔCp vs saline, Collagen 2A1",Collagen 2A1; Day 7,0.487 and −0.01 and 0.517
same,"Mean ΔCp, Collagen 2A1",Collagen 2A1; Day 7,7.063
same,"regulation, Collagen 2A1",Collagen 2A1; Day 14,−3.42 and 7.09 and 7.76
same,"Mean regulation, Collagen 2A1",Collagen 2A1; Day 14,3.81
same,"ΔCp, Collagen 2A1",Collagen 2A1; Day 14,12.83 and 8.23 and 8.1
same,"2^-ΔΔCp vs saline, Collagen 2A1",Collagen 2A1; Day 14,0.2925 and 7.0943 and 7.7633
same,"ΔΔCp vs saline, Collagen 2A1",Collagen 2A1; Day 14,1.773 and −2.83 and −2.96
same,"Mean ΔCp, Collagen 2A1",Collagen 2A1; Day 14,9.72
same,"regulation, SOX9",SOX9,−2.30 and 2.11 and 2.04
same,"Mean regulation, SOX9",SOX9,0.62
same,"ΔCp, SOX9",SOX9,8.38 and 6.1 and 6.15
same,"2^-ΔΔCp vs saline, SOX9",SOX9,0.4353 and 2.114 and 2.042
same,"ΔΔCp vs saline, SOX9",SOX9,1.2 and −1.08 and −1.03
same,"Mean ΔCp, SOX9",SOX9,6.877
same,Mean ΔCp,Aggrecan; Table 12,7.1
same,ΔCp,Aggrecan; Table 12,8.24 and 5.62 and 7.44
same,Mean ΔCp,Aggrecan; Table 16,7.1
same,ΔCp,Aggrecan; Table 16,8.24 and 5.62 and 7.44
same,Cp Agg,Aggrecan; Table 12,25.43 and 23.3 and 24.4
same,Cp Agg,Aggrecan; Table 16,25.43 and 23.3 and 24.4
same,Mean regulation,Aggrecan; Table 12,11.66
same,Mean regulation,Aggrecan; Table 16,11.66
same,Cp TIMP1,TIMP1; Table 12,20.59 and 21.28 and 20.57
same,2-^ΔΔCp vs saline,TIMP1; Table 16,1.2894 and 1.1225 and 1.1147
same,Cp TIMP1,TIMP1; Table 16,20.59 and 21.28 and 20.57
same,Mean regulation,TIMP1; Table 12,1.18
same,regulation,TIMP1; Table 12,1.29 and 1.12 and 1.11
same,regulation,TIMP1; Table 16,1.29 and 1.12 and 1.11
same,Mean ΔCp,TIMP1; Table 12,3.537
same,ΔCp,TIMP1; Table 12,3.4 and 3.6 and 3.61
same,Mean ΔCp,TIMP1; Table 16,3.537
same,ΔCp,TIMP1; Table 16,3.4 and 3.6 and 3.61
